Measured values: patent US4599424A, “5-substituted thiadiazole ureas and their use as herbicides” (priority 1979, dated 1986)

Tested on: a variety of crops and weed species
Assay: Pre- and post-emergence herbicide tests, overall assessment of TABLES III-VI
Assay type: in vivo
Details: from data of TABLES III-VI
Procedure: All crop and weed species were planted individually in 3" plastic pots containing potting soil. Four seeds each of corn, cotton, and snapbeans were seeded to a depth equal to the diameter of the seed. All other species were surface seeded and sprinkled with screened soil in an amount sufficient to cover the seed. Immediately after planting, all pots were watered by sub-irrigation in greenhouse trays. Pots for the pre-emergence phase were seeded one day before treatment.
Planting dates for the post-emergence phase were varied so that all seedlings would reach the desired stage of development simultaneously. The proper stage of seedling development for treatment in the post-emergence phase is as follows:
Compounds were tested at rates of application equivalent to 8 lbs. of actual compound per acre in a spray volume of 38 gallons per acre. Spray hood constants required to deliver the above volume are as follows:
Two weeks after treatment, pre- and post-emergence injury or control was visually rated, and the results were as shown in the following tables. Pre-emergence data are provided in TABLE III and post-emergence data are provided in TABLE IV, for compounds having the formula illustrated in TABLE I. Correspondingly, pre-emergence and post-emergence data, respectively, are set forth in TABLES V AND VI, for compounds having the formula illustrated in TABLE II.
Typical of such compounds are: 1, 2, 5, 26, 36, and 37.

Row | Structure (SMILES) | herbicidal effectiveness and selectivity (in words)
1 | CNC(=O)Nc1nnc(CC(C)C)s1 [Example 21] | more selective
2 | CNC(=O)Nc1nnc(COC)s1 [Example 25] | more selective
3 | CNC(=O)Nc1nnc(SC)s1 [Example 26] | extremely effective
4 | CNC(=O)Nc1nncs1 [Example 35] | more selective
5 | CNC(=O)N(C)c1nnc(C(F)(F)F)s1 [Example 36] | extremely effective
